Molecules are shown by their SMILES.

By Ki is commonly meant a measure of affinity in units of concentration, obtained from inhibition or displacement. A high value points to lower affinity.

Sequence of human A2A receptor (P29274 whole entry): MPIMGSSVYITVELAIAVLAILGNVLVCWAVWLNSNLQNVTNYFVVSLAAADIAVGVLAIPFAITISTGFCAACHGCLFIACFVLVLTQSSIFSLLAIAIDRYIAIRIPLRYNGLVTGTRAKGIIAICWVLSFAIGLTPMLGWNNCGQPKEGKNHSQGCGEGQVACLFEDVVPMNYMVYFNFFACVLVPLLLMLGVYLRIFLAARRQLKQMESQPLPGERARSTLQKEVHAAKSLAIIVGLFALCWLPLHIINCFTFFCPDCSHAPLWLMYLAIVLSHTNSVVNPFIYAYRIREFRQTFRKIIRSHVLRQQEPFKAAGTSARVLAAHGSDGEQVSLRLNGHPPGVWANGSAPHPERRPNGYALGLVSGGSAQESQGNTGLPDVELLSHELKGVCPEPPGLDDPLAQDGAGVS

This experiment has as its target human A2A receptor (Homo sapiens (Human), UniProt P29274). The experiment is described as follows: competition binding assay using Scintillation Proximity technology. As to conditions: membranes from CHO-K1 cells expressing the human A2a receptor; 2.0 nM tritiated compound; Cheng-Prusoff. The method, then: The utility of the compounds in accordance with the present invention as A2A receptor antagonists may be readily determined without undue experimentation by methodologies well known in the art, including by a competition binding assay using Scintillation Proximity technology. Briefly, membranes from CHO-K1 cells expressing the human A2A receptor are incubated with a test compound at various concentrations, e.g., ranging from 3000 nM to 0.15 nM, in a reaction mixture also containing a tritiated form of 5-amino-7-[2-phenethyl]-2-(furan-2-yl)-7H-pyrazolo[4,3-e][1,2,4]triazolo[1,5-c]pyrimidine (the tritiated compound) and wheatgerm agglutin-coated yttrium silicate SPA beads at room temperature. The beads are then allowed to settle to the bottom of the wells, after which the membrane-associated radioactivity is determined by scintillation counting in a microplate reader. Ki values can be determined using the Cheng-Prusoff equation.
Thus, 1.0 μg of membranes from CHO-K1 cells expressing the human A2a receptor were incubated with a compound of the invention at concentrations ranging from 3000 nM to 0.15 nM in a reaction mixture also containing 2.0 nM of a tritiated form of 5-amino-7-[2-phenethyl]-2-(furan-2-yl)-7H-pyrazolo[4,3-e][1,2,4]triazolo[1,5-c]pyrimidine (the tritiated compound) and 100 μg of wheatgerm agglutin-coated yttrium silicate SPA beads for one hour at room temperature with agitation. The beads were then allowed to settle to the bottom of the wells for 1 hr, after which the membrane-associated radioactivity was determined by scintillation counting in a TopCount microplate reader. Ki values were determined using the Cheng-Prusoff equation.
Summary of Materials and Methods Used in A2a Activity Determination:
• Membranes from CHO-K1 cells expressing the human Adenosine2A receptor (Perkin-Elmer #RBHA2AM400UA). • The tritiated compound was prepared according to published methods. • Wheatgerm agglutinin-coated yttrium silicate SPA beads (GE Healthcare #RPNQ0023). Dilute to 25 mg/ml in Assay Buffer. • Assay Buffer: Dulbecco's calcium and magnesium free phosphate buffered saline+10 mM MgCl2 • Adenosine deaminase (ADA) from calf intestine, 10 mg/2 ml (Roche #10 102 105 001). • DMSO • A2a antagonist standard (9-chloro-1-(2-furanyl)-[1,2,4]triazolo[1,5-c]quinazolin-5-amine from Tocris Bioscience) Compound Dilution • Make eight 1:3 serial dilutions in 100% DMSO from a 3 mM compound stock. • Transfer 50 nL of compound into a 384-well OptiPlate (Perkin Elmer). • Typically, final concentrations of compound used in the assay ranged from 3000 nM to 0.152 nM. Radioisotope • Dilute a solution of the tritiated compound to 5.0 nM in assay buffer. This is a 2.5× solution. The final concentration in the assay is 2.0 nM. Calculate the concentration by counting two 5 μL aliquots. Membrane Preparation • Use 1.0 μg of membrane/well. Dilute membranes to 33 μg/mL in assay buffer. Treat with 20 μg/mL ADA for 15 minutes at room temperature to degrade endogenous adenosine. Membrane-Bead Mixture • Use 100 μg/well wheatgerm agglutinin-coated yttrium silicate SPA beads. • Mix ADA-treated membranes and SPA beads together for 30 min prior to assay. Assay Assembly • To the Perkin-Elmer Optiplate-384 containing the compound titration add 20 μL of 2.5× solution of the tritiated compound and 30 μL of the membrane-bead mixture. Incubate for one hour at room temperature with agitation. • Include total binding (assay buffer+1% DMSO) and non-specific binding (CGS 15943, 1 μM) wells. Counting • Allow the beads to settle for one hour. • Count in TopCount. Calculations • A curve fitting program (i.e., Prism, Activity Base, Chemcart) is used to determine the EC50. The Ki value is calculated using the Cheng-Prusoff equation. Ki=EC50/(1+(radioligand concentration/Kd))
On to `Nc1nc2c3c(ccc2c2nc(Cc4cccnc4N4CC[C@@H](c5ccc(C(F)(F)F)cc5)C4)nn12)OC(F)(F)O3` [Example 5, (S)-2,2-difluoro-8-((2-(3-(4-(trifluoromethyl)phenyl)pyrrolidin-1-yl)pyridin-3-yl)methyl)-[1,3]dioxolo[4,5-h][1,2,4]triazolo[1,5-c]quinazolin-5-amine], for which the affinity, expressed as Ki, was 15 nM.
Compound `Nc1nc2c3c(ccc2c2nc(CC(CO)CO)nn12)OC(F)(F)O3` [Example 149, 2-[(5-amino-2,2-difluoro[1,3]dioxolo[4,5-h][1,2,4]triazolo[1,5-c]quinazolin-8-yl)methyl]propane-1,3-diol] had an inhibitory constant (Ki) of 2.7 nM.
In the case of `C[C@@H](Cc1nc2c3ccc4c(c3nc(N)n2n1)OC(F)(F)O4)N1CCCC(C)(F)C1` (single isomer, unassigned) [Example 89, 2,2-difluoro-8-{(2S)-2-[(3R or 3S)-3-fluoro-3-methylpiperidin-1-yl]propyl}[1,3] dioxolo[4,5-h] [1,2,4]triazolo[1,5-c]quinazolin-5-amine] it was 6.1 nM; in that of `CC1N(CCc2nc3c4ccc5c(c4nc(N)n3n2)OC(F)(F)O5)CCCC1(F)F` (single isomer, unassigned) [Example 68, (R or S)-8-[2-(3,3-difluoro-2-methylpiperidin-1-yl)ethyl]-2,2-difluoro[1,3]dioxolo[4,5-h][1,2,4] triazolo[1,5-c]quinazolin-5-amine], 1.2 nM.
In the case of `Cc1nc2c(o1)CN([C@H](C)Cc1nc3c4ccc5c(c4nc(N)n3n1)OC(F)(F)O5)CC2` [Example 79, 2,2-difluoro-8-[(2R)-2-(2-methyl-6,7-dihydro[1,3]oxazolo[5,4-c]pyridine-5(4H)-yl)propyl][1,3] dioxolo[4,5-h][1,2,4]triazolo[1,5-c] quinazolin-5-amine] it was 1.3 nM; in that of `Nc1nc2c3c(ccc2c2nc(CC4CCN(CC(F)F)C4)nn12)OC(F)(F)O3` (single isomer, unassigned) [Example 156, (R or S)-8-{[1-(2,2-difluoroethyl)pyrrolidin-3-yl]methyl}-2,2-difluoro[1,3]dioxolo[4,5-h][1,2,4]triazolo[1,5-c]quinazolin-5-amine], 5.3 nM.
In the case of `Nc1nc2c3c(ccc2c2nc(CC4CCN(CCC(F)(F)F)C4)nn12)OC(F)(F)O3` (single isomer, unassigned) [Example 155, (R or S)-2,2-difluoro-8-{[1-(3,3,3-trifluoropropyl)pyrrolidin-3-yl]methyl}[1,3]dioxolo[4,5-h][1,2,4]triazolo[1,5-c]quinazolin-5-amine] it was 7.2 nM.
As for `Nc1nc2c3c(ccc2c2nc(CCN4CCCC(F)(C(F)(F)F)C4)nn12)OC(F)(F)O3` (single isomer, unassigned) [Example 72, (R or S)-2,2-difluoro-8-(2-(3-fluoro-3-(trifluoromethyl)piperidin-1-yl)ethyl)-[1,3]dioxolo[4,5-h][1,2,4]triazolo[1,5-c]quinazolin-5-amine], the Ki turned out to be 0.9 nM.
With `Nc1nc2c3c(ccc2c2nc([C@H]4CC[C@@H](N5CCCC(F)(F)C5)C4)nn12)OC(F)(F)O3` [Example 161, 8-[(1S,3R)-3-(3,3-difluoropiperidin-1-yl)cyclopentyl]-2,2-difluoro[1,3]dioxolo[4,5-h][1,2,4]triazolo[1,5-c]quinazolin-5-amine] the figure was 32 nM; with `Nc1nc2c3c(ccc2c2nc(Cc4cccnc4N4CC[C@@H](c5ccc(F)cc5)C4)nn12)OC(F)(F)O3` [Example 4, (S)-2,2-difluoro-8-((2-(3-(4-fluorophenyl)pyrrolidin-1-yl)pyridin-3-yl)methyl)-[1,3]dioxolo[4,5-h][1,2,4]triazolo[1,5-c]quinazolin-5-amine], 8.3 nM; with `Cc1nc2c(s1)CCN(CCc1nc3c4ccc5c(c4nc(N)n3n1)OC(F)(F)O5)C2` [Example 13, 2,2-difluoro-8-[2-(2-methyl-6,7-dihydro[1,3]thiazolo[4,5-c]pyridin-5(4H)-yl)ethyl][1,3] dioxolo[4,5-h][1,2,4]triazolo [1,5-c]quinazolin-5-amine], 1.8 nM.
In the case of `Nc1nc2c3c(ccc2c2nc([C@@H]4CCCN(CC(F)F)C4)nn12)OC(F)(F)O3` [Example 139, (R)-8-(1-(2,2-difluoroethyl)piperidin-3-yl)-2,2-difluoro-[1,3]dioxolo[4,5-h][1,2,4]triazolo[1,5-c]quinazolin-5-amine] it was 1.5 nM.
In the case of `Nc1nc2c3c(ccc2c2nc(CN4CC(O)(C(F)(F)F)C4)nn12)OC(F)(F)O3` [Example 113, 11-[(5-amino-2,2-difluoro[1,3]dioxolo [4,5-h][1,2,4]triazolo[1,5-c]quinazolin-8-yl)methyl]-3-(trifluoromethyl) azetidin-3-ol] it was 2.8 nM; in that of `Nc1nc2c3c(ccc2c2nc(CCN4CCN(c5cccc(F)c5)C(=O)C4)nn12)OC(F)(F)O3` [Example 50, 4-[2-(5-amino-2,2-difluoro[1,3]dioxolo[4,5-h][1,2,4]triazolo [1,5-c]quinazolin-8-yl)ethyl]-1-(3-fluorophenyl)piperazin-2-one], 1.1 nM.
Compound `Nc1nc2c3c(ccc2c2nc(C[C@@H](N)C4CC4)nn12)OC(F)(F)O3` [Example 159, 8-[(2R)-2-amino-2-cyclopropylethyl]-2,2-difluoro[1,3]dioxolo[4,5-h][1,2,4]triazolo[1,5-c]quinazolin-5-amine] came in with an inhibitory constant (Ki) of 180 nM.
In the case of `CC1CCN(CCc2nc3c4ccc5c(c4nc(N)n3n2)OC(F)(F)O5)CC1` [Example 38, 2,2-difluoro-8-[2-(4-methylpiperidin-1-yl)ethyl][1,3]dioxolo[4,5-h][1,2,4]triazolo[1,5-c]quinazolin-5-amine] it was 27 nM.
In the case of `Nc1nc2c3c(ccc2c2nc(CCN4CCCC45CCNCC5)nn12)OC(F)(F)O3` [Example 55, 8-[2-(1,8-diazaspiro[4.5]dec-1-yl)ethyl]-2,2-difluoro[1,3] dioxolo[4,5-h][1,2,4]triazolo [1,5-c]quinazolin-5-amine] it was 22 nM; in that of `CCC1(F)CN(Cc2nc3c4ccc5c(c4nc(N)n3n2)OC(F)(F)O5)C1` [Example 112, 8-[(3-ethyl-3-fluoroazetidin-1-yl)methyl]-2,2-difluoro[1,3] dioxolo[4,5-h][1,2,4]triazolo[1,5-c]quinazolin-5-amine], 2 nM; in that of `Nc1nc2c3c(ccc2c2nc(CN4Cc5ccc(C(F)(F)F)cc5C4)nn12)OC(F)(F)O3` [Example 123, 2,2-difluoro-8-{[5-(trifluoromethyl)-1,3-dihydro-2H-isoindol-2-yl]methyl} [1,3]dioxolo[4,5-h][1,2,4]triazolo[1,5-c]quinazolin-5-amine], 4.9 nM.
Take `Nc1nc2c3c(ccc2c2nc(CCN4Cc5cnc(C(F)(F)F)nc5C4)nn12)OC(F)(F)O3` [Example 9, 2,2-difluoro-8-{2-[2-(trifluoromethyl)-5,7-dihydro-6H-pyrrolo[3,4-d]pyrimidin-6-yl]ethyl}[1,3]dioxolo[4,5-h][1,2,4]triazolo[1,5-c]quinazolin-5-amine]: the Ki was 3.8 nM.
In the case of `C[C@H](Cc1nc2c3ccc4c(c3nc(N)n2n1)OC(F)(F)O4)N1CCCC(C)(F)C1` (single isomer, unassigned) [Example 86, 2,2-difluoro-8-{(2R)-2-[(3R or 3S)-3-fluoro-3-methylpiperidin-1-yl]propyl}[1,3]dioxolo[4,5-h][1,2,4]triazolo[1,5-c]quinazolin-5-amine] it was 16 nM.

The record behind these values is patent US11046714B2, “2,2-difluorodioxolo A2A receptor antagonists” (Merck Sharp & Dohme Corp., priority 2013, dated 2021).
